Results as given in patent US9603980B2, “Layer-by-layer stereocomplexed polymers as drug depot carriers or coatings in medical devices” (Cardinal Health Switzerland 515 GmbH, priority 2008, dated 2017).

Tests used:
[1] = system: restenosis after coronary angioplasty; experiment: MVP randomized clinical trial, angiographic and clinical outcome; type: in vivo, human
Source text: In addition, the invention enables the skilled practitioner to use probucol in conjunction with other percutaneous coronary interventions such as stenting if it is deemed appropriate. The present invention concerns the IVUS substudy from the MVP restenosis trial. MVP was a double-blind placebo-controlled randomized clinical trial with four study groups. The protocol was approved by the Montreal Heart Institute institutional review board. The MVP study design, inclusion and exclusion criteria have been previously described (N Engl J Med 1997; 365-372). Briefly, patients referred for elective coronary angioplasty were evaluated at least 30 days prior to their scheduled procedure. Eligible patients were asked to provide written informed consent. Patients were eligible if they were scheduled to undergo standard balloon angioplasty on at least one native coronary artery and had at least one de novo target lesion with luminal narrowing of fifty percent or more by caliper measurements. Beginning thirty days prior to scheduled angioplasty, patients were randomly assigned to receive either probucol alone, multivitamins alone, the combination of probucol and multivitamins, or placebo. Probucol 500 mg or matched placebo was administered twice daily. The multivitamin complex, consisting of vitamin E 700 IU, vitamin C 500 mg and beta-carotene 30,000 IU, or matched placebo was also administered in one tablet twice daily. All patients received an extra dose of probucol 1000 mg and/or vitamin E 2000 IU and/or matched placebos twelve hours before angioplasty, according to randomization assignment. […] Balloon angioplasty was performed according to standard techniques. […] The sequence of contrast injections with the exact degree of angulation was recorded and used for every angiogram. Coronary arteriograms (pre-, post-procedure, and final follow-up) were analyzed together using the Coronary Measurement System (CMS), as previously reported. Patient follow-up included clinical evaluation, exercise treadmill testing, blood chemistry, pill count and drug level measurements, and dietary assessment and intervention. Patients were readmitted for follow-up coronary angiography at five to seven months. Patients in whom arteriography was performed for clinical reasons before the fifth month returned for repeat angiographic examination at five to seven months if no definite angiographic restenosis was present on at least one dilated site. During follow-up, patients with recurrence or exacerbation of anginal symptoms were treated with medical therapy or revascularization procedures (reangioplasty or Coronary Bypass Surgery) as clinically indicated. […]

[2] = system: tissue hyperplasia and vascular remodeling after coronary angioplasty; experiment: IVUS substudy of the MVP restenosis trial; type: in vivo, human; conditions: for Lumen area: Follow-up Post PTCA (change)
Source text: Serial intravascular ultrasound (IVUS) examinations have been performed in a consecutive series of patients involved in the MVP trial. By providing tomographic views of coronary arteries with high resolution, IVUS allows quantitative assessment of changes in arterial lumen and wall dimensions. We were therefore able in this study to determine the pathophysiology of coronary restenosis after balloon angioplasty in patients systematically undergoing follow-up IVUS examination and determine the effect of probucol on tissue hyperplasia and vascular remodeling after coronary angioplasty.
The present invention concerns the IVUS substudy from the MVP restenosis trial. MVP was a double-blind placebo-controlled randomized clinical trial with four study groups. The protocol was approved by the Montreal Heart Institute institutional review board. The MVP study design, inclusion and exclusion criteria have been previously described (N Engl J Med 1997; 365-372). Briefly, patients referred for elective coronary angioplasty were evaluated at least 30 days prior to their scheduled procedure. Eligible patients were asked to provide written informed consent. Patients were eligible if they were scheduled to undergo standard balloon angioplasty on at least one native coronary artery and had at least one de novo target lesion with luminal narrowing of fifty percent or more by caliper measurements.
Beginning thirty days prior to scheduled angioplasty, patients were randomly assigned to receive either probucol alone, multivitamins alone, the combination of probucol and multivitamins, or placebo. Probucol 500 mg or matched placebo was administered twice daily. […] The sequence of contrast injections with the exact degree of angulation was recorded and used for every angiogram. Coronary arteriograms (pre-, post-procedure, and final follow-up) were analyzed together using the Coronary Measurement System (CMS), as previously reported. […] Patients were readmitted for follow-up coronary angiography at five to seven months. […]

LDL = experiment: Lag phase for LDL peroxidation ex vivo, diene conjugates after addition of copper ions; parameters: species or system human; conditions: treatment for one month; compared with vitamins alone or the combination of probucol and vitamins; preliminary results
[3] = compared to placebo, probucol given alone

CC(C)(Sc1cc(C(C)(C)C)c(O)c(C(C)(C)C)c1)Sc1cc(C(C)(C)C)c(O)c(C(C)(C)C)c1 [Probucol Alone, 4,4′-([1-methylethylidene)bis(thio)]bis-[2,6-bis(1,1-dimethylethyl)phenol]]
reduction of the need for repeat angioplasty ([1]; at 6 month, compared to placebo, probucol given alone): fifty-eight | reduction of angiographic lumen loss [1, 3]: sixty-eight | reduction of restenosis rate per segment [1, 3]: forty-seven | patients in whom restenosis still occurred ([1]; patients given probucol alone): over twenty | Lumen area ([2]; compliant patients only): −0.15 ± 1.70 mm^2 | Lumen area ([2]; per segment): −0.15 ± 1.70 mm^2 | increase in vessel enlargement ([2]; probucol only compared with placebo): seven hundred-thirty | protection against LDL oxidation (LDL): significantly greater protection
